Where two headings read alike, the source gives them in different places.

The subject of data set [1] is A375 human melanoma cells. Nature of the data set: Karyomorphosis test. Conditions: test compound 10 μM and 1 μM, 48 hr, nuclei stained with propidium iodide. The format is cell-based. As to the method: A375 human melanoma cells (2×10^4) (obtained from Japanese Foundation for Cancer Research) were incolulated on a culture slide (manufactured by Falcon) and were cultured at 37° C. After the elapse of 5 hr from the initiation of the cultivation, the test compound was added to 10 μM and 1 μM, and the cultivation was continued for additional 48 hr. After the fixation of cells, 50 μg/ml propidium iodide solution containing ribonuclease (200 μg/ml) was added to stain nuclei. The stained nuclei were observed under a fluorescent microscope to analyze the nuclei for abnormality of karyomorphosis.

Data set [2] has as its system activation of MAPK within vascular endothelial cells induced by VEGF stimulation. The data set is described as follows: Inhibitory activity against activation of MAPK within vascular endothelial cells induced by VEGF stimulation. It is filed as cell-based. The conditions noted are these: human funicular venous vascular endothelial cells, VEGF 50 ng/ml, phosphorylated MAPK by immunoblotting. The essentials: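 Serum-starved (0.5% FCS, 24 h) human umbilical vein endothelial cells pretreated with compound 1 h at 37 °C, then stimulated with 50 ng/ml recombinant human VEGF for 8 min.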

Another data set has as its system Human glioma cells GL07. Nature of the data set: Antitumor effect on human glioma cells (GL07) transplanted into nude mice. It is filed as in vivo. Conditions: 20 mg/kg once a day for 9 days; for inhibition in vivo at 20 mg/kg: Mus musculus, Glioma cell, 216 h, read-out: TGIR, % (tumor growth inhibition rate). The procedure, abridged: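 GL07 xenografts in nude mice, grouped (n=4) at ~100 mm^3 tumor volume. Test compound 20 mg/kg p.o. or i.p. once daily for 9 days; vehicle controls. TGIR = (1−Tx/Cx)×100 from tumor volumes normalized to day-of-start volume = 1.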

For `CCCNC(=O)Nc1ccc(Oc2ccnc3cc(OC)c(OC)cc23)cc1Cl` [Example 13, N-{2-chloro-4-[(6,7-dimethoxy-4-quinolyl)oxy]-phenyl}-N′-propylurea], in data set [1], the Change in morphosis result is given as “(−) (the change in karyomorphosis of cells did not take place at 10 μM)”. Besides, the IC50 in data set [2] (Endothelial cell) amounted to 2.2 nM. In the data set on Human glioma cells GL07 (ip, GL07, intraperitoneal), the inhibition in vivo at 20 mg/kg is 52%.

As to `COc1cc2nccc(Oc3ccc(NC(=O)Nc4ccc(Br)cn4)c(Cl)c3)c2cc1OC` [Example 17, N-(5-Bromo-2-pyridyl)-N′-{2-chloro-4-[(6,7-dimethoxy-4-guinolyl)oxy]phenyl}urea], in data set [1], the Change in morphosis entry is recorded as “(−) (the change in karyomorphosis of cells did not take place at 10 μM)”. In data set [2], the IC50 is 11 nM. Also, in the data set on Human glioma cells GL07 (GL07, intraperitoneal), the “TGIR, % (tumor growth inhibition rate)” value came to 85%.

For the compound `COc1cc2nccc(Oc3ccc(NC(=O)Nc4ccc(F)cc4F)c([N+](=O)[O-])c3)c2cc1OC` [Example 48, N-(2,4-Difluorophenyl)-N′-{4-[(6,7-dimethoxy-4-quinolyl)oxy]-2-nitrophenyl}urea], the Change in morphosis result in data set [1] is listed as “(−) (the change in karyomorphosis of cells did not take place at 10 μM)”. Further, in data set [2] (Endothelial cell), half-maximal inhibition (IC50) was put at 0.5 nM. For the same compound, the inhibition in vivo at 20 mg/kg in the data set on Human glioma cells GL07 (ip, GL07, intraperitoneal) turned out to be 90%.

In the case of `CCCNC(=O)Nc1ccc(Oc2ncnc3cc(OC)c(OC)cc23)cc1Cl` [Example 62, N-{2-chloro-4-[(6,7-dimethoxy-4-quinazolinyl)-oxy]phenyl}-N′-propylurea], the Change in morphosis result in data set [1] was “(−) (the change in karyomorphosis of cells did not take place at 10 μM)”. In data set [2] (Endothelial cell), this compound yielded an IC50 of 16 nM. In the data set with Human glioma cells GL07 (GL07, oral), the inhibition in vivo at 20 mg/kg came out at 78%.

With `COc1cc2nccc(Oc3ccc(NC(=O)Nc4ccc(F)cc4C)c(C)c3C)c2cc1OC` [Example 25, N-{4-[(6,7-Dimethoxy-4-guinolyl)oxy]-2,3-dimethylphenyl}-N′-(4-fluoro-2-methylphenyl)urea], the Change in morphosis result in data set [1] is “(−) (the change in karyomorphosis of cells did not take place at 10 μM)”. The same compound gave an IC50 in data set [2] of 3.9 nM. In the data set with Human glioma cells GL07 (GL07, intraperitoneal), the “TGIR, % (tumor growth inhibition rate)” value was determined as 68%.

For the compound `COc1cc2nccc(Oc3ccc(NC(=O)Nc4ccc(Cl)cn4)c(C)c3C)c2cc1OC` [Example 28, N-(5-Chloro-2-pyridyl)-N′-{4-[(6,7-dimethoxy-4-guinolyl)oxy]-2,3-dimethylphenyl}urea], in data set [1], the Change in morphosis result was “(−) (the change in karyomorphosis of cells did not take place at 10 μM)”. The compound also gave an IC50 in data set [2] of 4 nM. The “TGIR, % (tumor growth inhibition rate)” value in the data set on Human glioma cells GL07 (GL07, intraperitoneal) is on record as 84%.

Regarding `COc1ccccc1NC(=O)Nc1ccc(Oc2ccnc3cc(OC)c(OC)cc23)cc1Cl` [Example 18, N-{2-Chloro-4-[(6,7-dimethoxy-4-quinolyl)oxy]phenyl}-N′-(2-methoxyphenyl)urea], the Change in morphosis entry in data set [1] was “(−) (the change in karyomorphosis of cells did not take place at 10 μM)”. The same compound showed an IC50 in data set [2] (Endothelial cell) of 0.6 nM. For the same compound, the inhibition in vivo at 20 mg/kg in the data set on Human glioma cells GL07 (GL07, oral) came to 57%.

As for `COc1cc2nccc(Oc3ccc(NC(=O)Nc4ccc(Br)cn4)c(C)c3C)c2cc1OC` [Example 29, N-(5-Bromo-2-pyridyl)-N′-{4-[(6,7-dimethoxy-4-quinolyl)oxy]-2,3-dimethylphenyl}urea], the Change in morphosis result in data set [1] is “(−) (the change in karyomorphosis of cells did not take place at 10 μM)”. In data set [2] (Endothelial cell), half-maximal inhibition (IC50) was put at 4.4 nM. The inhibition in vivo at 20 mg/kg with Human glioma cells GL07 (GL07, oral) worked out at 64%.

As to `COc1cc2nccc(Oc3ccc(NC(=O)Nc4ccc(F)cc4F)c(C)c3C)c2cc1OC` [Example 24, N-(2,4-Difluorophenyl)-N′-{4-[(6,7-dimethoxy-4-guinolyl)oxy]-2,3-dimethylphenyl}urea], the Change in morphosis result in data set [1] was “(−) (the change in karyomorphosis of cells did not take place at 10 μM)”. The same compound showed an IC50 in data set [2] of 0.6 nM. For the same compound, the “TGIR, % (tumor growth inhibition rate)” value in the data set on Human glioma cells GL07 (GL07, oral) came out at 63%.

For the compound `COc1cc2nccc(Oc3cc(C)c(NC(=O)Nc4ccc(F)cc4F)cc3C)c2cc1OC` [Example 37, N-(2,4-Difluorophenyl)-N′-{4-[(6,7-dimethoxy-4-quinolyl)oxy]-2,5-dimethylphenyl}urea], in data set [1], the Change in morphosis entry is listed as “(−) (the change in karyomorphosis of cells did not take place at 10 μM)”. This compound yielded a half-maximal inhibitory concentration (IC50) in data set [2] (Endothelial cell) of 2.3 nM. The inhibition in vivo at 20 mg/kg in the data set with Human glioma cells GL07 (ip, GL07, intraperitoneal) was 70%.

For the compound `COc1cc2nccc(Oc3ccc(NC(=O)Nc4ccc(Cl)cn4)c(Cl)c3)c2cc1OC` [Example 16, N-{2-Chloro-4-[(6,7-dimethoxy-4-quinolyl)oxy]phenyl}-N′-(5-chloro-2-pyridyl)urea], the Change in morphosis entry in data set [1] is “(−) (the change in karyomorphosis of cells did not take place at 10 μM)”. The IC50 in data set [2] (Endothelial cell) was found to be 2.9 nM. Further, the inhibition in vivo at 20 mg/kg in the data set on Human glioma cells GL07 (ip, GL07, intraperitoneal) was found to be 77%.

Turning to `COc1cc2nccc(Oc3ccc(NC(=O)Nc4ccc(F)cc4C)c(Cl)c3)c2cc1OC` [Example 14, N-{2-Chloro-4-[(6,7-dimethoxy-4-quinolyl)oxy]phenyl}-N′-(4-fluoro-2-methylphenyl)urea], the Change in morphosis entry in data set [1] is given as “(−) (the change in karyomorphosis of cells did not take place at 10 μM)”. This compound came in with an IC50 in data set [2] (Endothelial cell) of 0.7 nM. The inhibition in vivo at 20 mg/kg in the data set on Human glioma cells GL07 (ip, GL07, intraperitoneal) stood at 81%.

The values are drawn from patent US7169789B2 (Kirin Beer Kabushiki Kaisha, priority 1999, dated 2007).
